The target in experiment [1] is T1, TmEcR (GAL4-EcR DEF with VP16-RXR partner) (Tenebrio molitor, UniProt O02035).
T1 sequence (O02035 194-491): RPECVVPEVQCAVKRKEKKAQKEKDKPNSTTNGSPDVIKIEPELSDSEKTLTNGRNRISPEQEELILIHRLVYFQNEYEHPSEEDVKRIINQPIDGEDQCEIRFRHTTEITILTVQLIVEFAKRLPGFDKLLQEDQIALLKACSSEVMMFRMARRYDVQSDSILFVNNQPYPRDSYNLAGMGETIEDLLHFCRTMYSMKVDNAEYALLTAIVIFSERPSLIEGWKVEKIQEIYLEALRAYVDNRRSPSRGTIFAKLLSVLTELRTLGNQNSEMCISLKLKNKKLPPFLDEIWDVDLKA
T1 sequence (P28704 1-520 partner): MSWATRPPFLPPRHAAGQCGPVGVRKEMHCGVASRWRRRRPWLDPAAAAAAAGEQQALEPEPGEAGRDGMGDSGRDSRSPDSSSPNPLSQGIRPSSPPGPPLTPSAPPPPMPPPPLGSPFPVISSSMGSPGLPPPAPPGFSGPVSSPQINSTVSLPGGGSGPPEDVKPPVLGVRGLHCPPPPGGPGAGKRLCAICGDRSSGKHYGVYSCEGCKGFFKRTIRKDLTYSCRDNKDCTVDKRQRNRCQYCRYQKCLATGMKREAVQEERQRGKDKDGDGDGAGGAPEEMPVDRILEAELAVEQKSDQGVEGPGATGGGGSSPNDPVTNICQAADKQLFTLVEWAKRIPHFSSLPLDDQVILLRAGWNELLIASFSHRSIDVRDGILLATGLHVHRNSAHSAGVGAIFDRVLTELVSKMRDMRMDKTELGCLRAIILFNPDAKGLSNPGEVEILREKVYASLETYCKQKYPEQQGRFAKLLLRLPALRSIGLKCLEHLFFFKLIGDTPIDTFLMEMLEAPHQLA
As to the kind of experiment: Two-hybrid gene switch assay, luciferase reporter, TmEcR, mouse NIH3T3 cells. The note with it: EC50, FIG. 14A/14B, GAL4-EcR(DEF).

Experiment [2] concerns the target BmEcR (GAL4-EcR DEF with VP16-RXR-USP chimera) (Bombyx mori, UniProt P49881). The experiment is described as follows: Two-hybrid gene switch assay, luciferase reporter, BmEcR, mouse NIH3T3 cells. To be noted: EC50, FIG. 13A/13B; BmEcR, GAL4-EcR(DEF) with VP16-RXR-USP chimera. The class given is cell-based.
Experiment [3] deals with wild-type Aedes aegypti EcR (AaEcR; GAL4-EcR DEF with VP16-RXR-USP chimera) (Aedes aegypti, UniProt P49880). The experiment is described as follows: Two-hybrid gene switch assay, luciferase reporter, wild-type AaEcR, mouse NIH3T3 cells. In kind it is cell-based. To be noted: EC50, FIG. 14A/14B, GAL4-EcR(DEF) with VP16-RXR-USP chimera.
Sequence of wild-type Aedes aegypti EcR (AaEcR; GAL4-EcR DEF with VP16-RXR-USP chimera) (P49880 with tags, fused parts or gaps limits assumed, change not shown): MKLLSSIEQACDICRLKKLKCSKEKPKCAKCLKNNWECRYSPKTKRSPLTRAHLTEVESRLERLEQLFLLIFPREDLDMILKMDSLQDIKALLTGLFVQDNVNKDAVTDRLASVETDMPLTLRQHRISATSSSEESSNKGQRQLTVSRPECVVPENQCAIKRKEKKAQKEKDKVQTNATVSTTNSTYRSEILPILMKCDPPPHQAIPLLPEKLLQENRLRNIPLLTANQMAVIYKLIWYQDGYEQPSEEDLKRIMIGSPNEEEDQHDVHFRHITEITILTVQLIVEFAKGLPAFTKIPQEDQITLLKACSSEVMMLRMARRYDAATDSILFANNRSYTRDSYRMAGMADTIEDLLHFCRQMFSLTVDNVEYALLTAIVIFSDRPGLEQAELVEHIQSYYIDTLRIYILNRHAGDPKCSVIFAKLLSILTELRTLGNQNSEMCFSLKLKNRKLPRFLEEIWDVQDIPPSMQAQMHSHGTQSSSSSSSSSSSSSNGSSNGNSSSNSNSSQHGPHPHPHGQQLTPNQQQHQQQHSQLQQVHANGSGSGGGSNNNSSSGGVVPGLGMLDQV
In experiment [4] the target is T2, BaEcR (GAL4-EcR DEF with VP16-RXR-USP chimera) (Bemisia tabaci, UniProt A0A6M3RDR8).
T2 sequence (A0A6M3RDR8 115-530): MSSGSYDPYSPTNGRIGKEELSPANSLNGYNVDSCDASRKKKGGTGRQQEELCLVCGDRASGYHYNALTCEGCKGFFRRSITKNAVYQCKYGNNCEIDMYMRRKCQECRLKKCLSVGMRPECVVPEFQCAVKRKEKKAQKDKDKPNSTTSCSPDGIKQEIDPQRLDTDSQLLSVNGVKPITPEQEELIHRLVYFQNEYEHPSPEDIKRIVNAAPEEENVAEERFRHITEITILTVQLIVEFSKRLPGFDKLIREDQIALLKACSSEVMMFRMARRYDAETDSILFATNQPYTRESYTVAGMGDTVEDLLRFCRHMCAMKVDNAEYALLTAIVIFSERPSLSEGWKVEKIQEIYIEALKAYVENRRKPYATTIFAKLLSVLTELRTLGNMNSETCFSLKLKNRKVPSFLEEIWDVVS
T2 sequence (P28702 1-533 partner): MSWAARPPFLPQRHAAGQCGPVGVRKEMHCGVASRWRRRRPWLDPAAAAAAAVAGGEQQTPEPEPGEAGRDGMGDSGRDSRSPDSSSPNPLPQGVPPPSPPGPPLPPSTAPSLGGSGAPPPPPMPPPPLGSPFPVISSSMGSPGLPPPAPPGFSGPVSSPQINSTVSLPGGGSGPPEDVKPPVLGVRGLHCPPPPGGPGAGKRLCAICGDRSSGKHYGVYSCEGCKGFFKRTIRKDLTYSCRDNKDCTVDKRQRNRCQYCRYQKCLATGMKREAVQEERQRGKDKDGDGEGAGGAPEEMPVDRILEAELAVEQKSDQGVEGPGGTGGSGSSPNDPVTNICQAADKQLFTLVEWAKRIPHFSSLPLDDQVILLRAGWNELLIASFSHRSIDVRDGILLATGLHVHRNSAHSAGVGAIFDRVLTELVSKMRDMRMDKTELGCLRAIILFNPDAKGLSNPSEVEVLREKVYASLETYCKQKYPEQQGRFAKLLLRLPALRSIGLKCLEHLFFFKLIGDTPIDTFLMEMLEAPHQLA
The experiment is described as follows: Two-hybrid gene switch assay, luciferase reporter, BaEcR, mouse NIH3T3 cells. The note with it: EC50, FIG. 14A/14B, GAL4-EcR(DEF) with VP16-RXR-USP chimera.

The target in experiment [5] is T3, wild-type CfEcR (GAL4-CfEcR-DEF with VP16-RXR-USP chimera) (Choristoneura fumiferana, UniProt O77255).
T3 sequence (O77255 219-541): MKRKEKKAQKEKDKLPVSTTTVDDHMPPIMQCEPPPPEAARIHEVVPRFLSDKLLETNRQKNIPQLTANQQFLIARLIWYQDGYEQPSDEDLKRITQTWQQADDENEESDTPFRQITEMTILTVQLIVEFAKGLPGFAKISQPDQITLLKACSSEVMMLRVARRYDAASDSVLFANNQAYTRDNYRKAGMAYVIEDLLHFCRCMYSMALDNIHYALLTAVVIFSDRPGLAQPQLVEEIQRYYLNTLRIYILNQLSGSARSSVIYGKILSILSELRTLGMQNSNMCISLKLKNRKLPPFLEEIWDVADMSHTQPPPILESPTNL
T3 sequence (P28702 1-533 partner): T2 sequence (P28702 1-533 partner)
The experiment is described as follows: Two-hybrid gene switch assay, luciferase reporter, wild-type CfEcR, mouse NIH3T3 cells.

Experiment [6] has as its target T4, AmaEcR (GAL4-EcR DEF with VP16-RXR-USP chimera) (Amblyomma americanum, UniProt O44338).
T4 sequence (O44338 255-570): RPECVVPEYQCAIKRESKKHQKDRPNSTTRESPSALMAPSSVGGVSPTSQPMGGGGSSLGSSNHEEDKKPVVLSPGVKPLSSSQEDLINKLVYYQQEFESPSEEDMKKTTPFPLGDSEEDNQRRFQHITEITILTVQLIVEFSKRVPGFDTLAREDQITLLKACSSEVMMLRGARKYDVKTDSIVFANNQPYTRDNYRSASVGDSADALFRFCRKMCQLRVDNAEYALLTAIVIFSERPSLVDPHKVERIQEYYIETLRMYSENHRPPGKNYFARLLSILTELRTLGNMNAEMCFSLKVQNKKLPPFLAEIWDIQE
T4 sequence (P28702 1-533 partner): T2 sequence (P28702 1-533 partner)
As to the kind of experiment: Two-hybrid gene switch assay, luciferase reporter, AmaEcR, mouse NIH3T3 cells. The note with it: EC50, FIG. 14A/14B, GAL4-EcR(DEF) with VP16-RXR-USP chimera.

Sequence of BmEcR (GAL4-EcR DEF with VP16-RXR-USP chimera) (P49881 other isoform, or with tags, fused parts or gaps, change not shown): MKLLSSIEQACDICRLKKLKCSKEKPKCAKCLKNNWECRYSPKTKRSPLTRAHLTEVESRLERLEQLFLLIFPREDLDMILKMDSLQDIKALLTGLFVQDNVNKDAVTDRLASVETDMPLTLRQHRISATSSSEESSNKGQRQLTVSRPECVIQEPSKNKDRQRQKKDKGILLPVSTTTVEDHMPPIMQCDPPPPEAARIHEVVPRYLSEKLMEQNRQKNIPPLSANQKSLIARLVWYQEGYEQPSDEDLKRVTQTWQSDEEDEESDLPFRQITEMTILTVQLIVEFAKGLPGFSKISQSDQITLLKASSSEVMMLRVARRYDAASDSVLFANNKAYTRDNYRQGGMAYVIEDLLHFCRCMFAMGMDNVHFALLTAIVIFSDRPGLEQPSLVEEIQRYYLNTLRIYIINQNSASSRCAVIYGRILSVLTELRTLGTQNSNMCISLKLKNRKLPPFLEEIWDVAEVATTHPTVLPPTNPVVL

Regarding `CC(C)(O)CC[C@@H](O)[C@](C)(O)[C@H]1CC[C@@]2(O)C3=CC(=O)[C@@H]4C[C@@H](O)[C@@H](O)C[C@]4(C)[C@H]3[C@H](O)C[C@]12C` [turkesterone], the concentration giving a half-maximal response (EC50) in experiment [1] was above 33 µM; in experiment [2] it was above 33 µM; in experiment [3], 3.37 µM; in experiment [4], around 20 µM; in experiment [5], above 33 µM; in experiment [6] it was around 10 µM.

Values taken from patent US8536354B2, “Steroidal ligands and their use in gene switch modulation” (Intrexon Corporation, priority 2008, dated 2013).
